Measurements: paper PMC3626250, “Effects of Borneol on Pharmacokinetics and Tissue Distribution of Notoginsenoside R1 and Ginsenosides Rg1 and Re in Panax notoginseng in Rabbits” (Journal of Analytical Methods in Chemistry, 2013)
Marks after values point to notes of the source that are not given here.

Tests used:
[1] = Pharmacokinetics study in rabbits after oral Panax notoginseng extract with or without Borneol (plasma, SPE-HPLC-MS); format: in vivo, New Zealand rabbits
Method: Liquid chromatography was carried out on an Agilent 1100 HPLC system with an auto sampler, a quaternary pump and a vacuum degasser (Waldoboro, Frankfurt, Germany). Operations were controlled by Agilent Chemstation 4.2 software (Littleforts, Philadelphia, USA). Separations were achieved on a reversed-phase HPLC column (Zorbax SB-C18 150 × 2.1 mm, 5.0 μm particle size). A solution of acetonitrile and water (V : V, 20 : 80) with 0.1% (V : V) ammonium formate was used as the mobile phase. The flow rate was set at 0.3 mL·min^−1 and the column temperature was 25°C. Under these conditions, NGR1, GRg1, and GRe in plasma samples were separated efficiently without any interferences.
MS^n detection was performed on an Agilent SL trap MS system (Waldoboro, Frankfurt, Germany). The ion source-dependent (electrospray ionization) conditions were the same for all analyses with a spraying voltage of −4500 V in the negative ion mode. The pressure of the nebulizing gas (nitrogen) was set at 35 p.s.i. The flow rate of the drying gas (nitrogen) was set at 7.0 L·min^−1 with the temperature of 325°C. The collision gas (He) for the MS^n mode at trap was set at flow of 4 (instrument unit). The voltage of the capillary was set at 4000 V, and its end plate offset was −500 V. Scan range was from 500 to 1500 m/z.
(§1) Frozen plasma and tissue samples were thawed in a water bath at 37°C and were then vortexed followed by centrifuging at 5000 r·min^−1 for 5 min. An aliquot of 1.0 mL of the supernatant from each sample was loaded onto C18 Bond Elute Solid phase extraction (SPE) cartridges (1000 mg, 1 cc reservoir, Varian, Harbor City, CA, USA) pretreated with 2.0 mL hexane, isopropanol, methanol, and water, sequentially. The SPE cartridges were then washed with 1.0 mL water, 20% methanol/water solution, 40% methanol/water solution, and 60% methanol/water solution, sequentially. Finally, analytes were eluted twice with 1.0 mL of 70% methanol/water solution. The eluant was evaporated to dryness under nitrogen. The residues were then reconstituted in 1.0 mL mobile phase. An aliquot of 10 μL was injected into the LC-MS system.
Eighteen rabbits were randomly divided into three groups of 6 subjects and were orally given 3.0 mL·kg^−1 normal saline, 3.0 mL·kg^−1 Panax notoginseng extract, and 3.0 mL·kg^−1 Panax notoginseng extract combined with Borneol, respectively. Plasma samples were collected in heparinized tubes from the central ear artery at 0.0, 5.0, 10.0, 20.0, 30.0, 45.0, 60.0, 75.0, 90.0, 120.0, 180.0, 300.0 and 480.0 min after dose. After each sampling, the same volume of 0.9% saline solution was injected from the ear vein to compensate the loss of blood. The plasma obtained was frozen at −70°C for storage and was processed prior to analysis with the proposed method as described in Section 2.6.
Statistical analysis of the biological data was performed using the Student's t-test. The drug analysis system 2.0 (DAS 2.0, T.C.M., Shanghai, China) was used to calculate the pharmacokinetic parameters, such as the area under curve (AUC), the maximum plasma concentration (C max), the time needed to reach the maximum plasma concentration (t max) and the half-life of absorption, and distribution and elimination (t 1/2Ka, t 1/2α, t 1/2β).

[2] = Tissue distribution study in rabbits after oral Panax notoginseng extract with or without Borneol; format: in vivo, New Zealand rabbits
Method: as §1
One group of rabbits (n = 18) was orally administered a dose of 3.0 mL·kg^−1 Panax notoginseng extract, while another group of rabbits (n = 18) was orally given 3.0 mL·kg^−1 Panax notoginseng extract combined with Borneol. At 0.5, 1, and 3 h after administration, blood samples were collected from the central ear artery of six rabbits from each group, and the heart, liver, lung, kidney, and brain were immediately removed after animals were sacrificed by decapitation. An accurately weighed amount of tissue (1 g) was collected to be rinsed, dried, minced, and homogenized (400 r·min^−1) in normal saline (1.5 mL). All of the samples were stored at −70°C and were processed prior to analysis with the proposed method as described in Section 2.6.

[3] = oral 3.0 mL·kg^−1 Panax notoginseng extract
[4] = oral 3.0 mL·kg^−1 Panax notoginseng extract combined with Borneol
[5] = 0.5 h, oral Panax notoginseng with Borneol
[6] = 1.0 h, oral Panax notoginseng with Borneol
[7] = 3.0 h, oral Panax notoginseng with Borneol
[8] = Borneol combined with Panax notoginseng, peak levels at 1.0 h

CC(C)=CCC[C@](C)(O[C@@H]1O[C@H](CO)[C@@H](O)[C@H](O)[C@H]1O)[C@H]1CC[C@]2(C)[C@@H]1[C@H](O)C[C@@H]1[C@@]3(C)CC[C@H](O)C(C)(C)[C@@H]3[C@@H](O[C@@H]3O[C@H](CO)[C@@H](O)[C@H](O)[C@H]3O[C@@H]3OC[C@@H](O)[C@H](O)[C@H]3O)C[C@]12C [NGR1, notoginsenoside R1]
AUC0–t [1, 3]: 162.1 ± 42.7 mg/L/min | AUC0–∞ [1, 3]: 164.0 ± 51.8 mg/L/min | C max [1, 3]: 2120 ± 460 ng/mL | CL/F [1, 3]: 488 ± 91 mL/min/kg | K 10 [1, 3]: 0.018 ± 0.005 min⁻¹ | K 12 [1, 3]: 0.000 ± 0.000 min⁻¹ | K 21 [1, 3]: 0.014 ± 0.007 min⁻¹ | K a [1, 3]: 0.060 ± 0.004 min⁻¹ | T lag [1, 3]: 2.38 ± 0.49 min | T max [1, 3]: 45.0 ± 9.8 min | V/F [1, 3]: 27.3 ± 8.6 L/kg | t 1/2Ka [1, 3]: 11.6 ± 2.4 min | t 1/2α [1, 3]: 38.5 ± 4.5 min | t 1/2β [1, 3]: 47.9 ± 8.1 min | α [1, 3]: 0.018 ± 0.008 min⁻¹ | β [1, 3]: 0.014 ± 0.003 min⁻¹ | AUC0–t [1, 4]: 306.3 ± 82.9 mg/L/min | AUC0–∞ [1, 4]: 395.3 ± 101.4 mg/L/min | C max [1, 4]: 1620 ± 300 ng/mL | CL/F [1, 4]: 506 ± 27 mL/min/kg | K 10 [1, 4]: 0.009 ± 0.002* min^−1 | K 12 [1, 4]: 0.015 ± 0.005** min^−1 | K 21 [1, 4]: 0.011 ± 0.002 min⁻¹ | K a [1, 4]: 0.037 ± 0.005** min^−1 | T lag [1, 4]: 1.04 ± 0.21 min | T max [1, 4]: 30.0 ± 8.0 min | V/F [1, 4]: 58.8 ± 6.9 L/kg | t 1/2Ka [1, 4]: 18.8 ± 3.1 min | t 1/2α [1, 4]: 28.4 ± 3.2 min | t 1/2β [1, 4]: 69.3 ± 5.2 min | α [1, 4]: 0.024 ± 0.005 min⁻¹ | β [1, 4]: 0.010 ± 0.003* min^−1 | Concentration in brain ([2]; 0.5 h, oral Panax notoginseng): 0.65 ± 0.24 µg/g | Concentration in heart ([2]; 0.5 h, oral Panax notoginseng): 3.90 ± 0.53 µg/g | Concentration in kidney ([2]; 0.5 h, oral Panax notoginseng): 2.85 ± 0.45 µg/g | Concentration in liver ([2]; 0.5 h, oral Panax notoginseng): 1.38 ± 0.54 µg/g | Concentration in lung ([2]; 0.5 h, oral Panax notoginseng): 1.77 ± 0.46 µg/g | Concentration in plasma ([2]; 0.5 h, oral Panax notoginseng): 1670 ± 50 ng/mL | Concentration in brain [2, 5]: 4.02 ± 0.46 µg/g | Concentration in heart [2, 5]: 4.68 ± 0.21 µg/g | Concentration in kidney [2, 5]: 3.98 ± 0.12 µg/g | Concentration in liver [2, 5]: 8.24 ± 0.42 µg/g | Concentration in lung [2, 5]: 5.79 ± 0.29 µg/g | Concentration in plasma [2, 5]: 1620 ± 70 ng/mL | Concentration in brain ([2]; 1.0 h, oral Panax notoginseng): 0.81 ± 0.26 µg/g | Concentration in heart ([2]; 1.0 h, oral Panax notoginseng): 4.26 ± 0.27 µg/g | Concentration in kidney ([2]; 1.0 h, oral Panax notoginseng): 2.74 ± 0.33 µg/g | Concentration in liver ([2]; 1.0 h, oral Panax notoginseng): 1.66 ± 0.28 µg/g | Concentration in lung ([2]; 1.0 h, oral Panax notoginseng): 1.82 ± 0.20 µg/g | Concentration in plasma ([2]; 1.0 h, oral Panax notoginseng): 1290 ± 200 ng/mL | Concentration in brain [2, 6]: 5.58 ± 0.68 µg/g | Concentration in heart [2, 6]: 5.55 ± 0.31 µg/g | Concentration in kidney [2, 6]: 3.38 ± 0.34 µg/g | Concentration in liver [2, 6]: 9.29 ± 0.72 µg/g | Concentration in lung [2, 6]: 9.96 ± 0.66 µg/g | Concentration in plasma [2, 6]: 1460 ± 50 ng/mL | Concentration in brain ([2]; 3.0 h, oral Panax notoginseng): 0.48 ± 0.14 µg/g | Concentration in heart ([2]; 3.0 h, oral Panax notoginseng): 3.31 ± 0.32 µg/g | Concentration in kidney ([2]; 3.0 h, oral Panax notoginseng): 1.94 ± 0.24 µg/g | Concentration in liver ([2]; 3.0 h, oral Panax notoginseng): 0.89 ± 0.12 µg/g | Concentration in lung ([2]; 3.0 h, oral Panax notoginseng): 1.51 ± 0.16 µg/g | Concentration in plasma ([2]; 3.0 h, oral Panax notoginseng): 160 ± 60 ng/mL | Concentration in brain [2, 7]: 3.69 ± 0.84 µg/g | Concentration in heart [2, 7]: 4.59 ± 0.52 µg/g | Concentration in kidney [2, 7]: 2.27 ± 0.28 µg/g | Concentration in liver [2, 7]: 6.87 ± 0.61 µg/g | Concentration in lung [2, 7]: 4.56 ± 0.75 µg/g | Concentration in plasma [2, 7]: 490 ± 20 ng/mL | level in kidney, fold higher than the plasma concentrations ([2]; Borneol combined with Panax notoginseng, at 1.0 h): 2.3 fold | level in brain, fold higher than the plasma concentrations [2, 8]: 3.82 fold | level in liver, fold higher than the plasma concentrations [2, 8]: 6.36 fold | level in lung, fold higher than the plasma concentrations [2, 8]: 6.82 fold
